Tested on: peripheral blood monocytes
Test: Ex vivo uptake of fluorescent Aβ42 by peripheral blood monocytes from adjuvanted mice
Type: in vivo, C57BL/6 mice
Conditions: 24 hrs after i.m. injection, FIG. 21; QS21 5 μg
Description: To begin to examine the function of the increase of monocytes in the peripheral blood, we examined the capacity of those monocytes to uptake Aβ42 in a test tube. In order to measure that phagocytic activity, we have used fluorescent HiLyteFluo Aβ42 (Anaspec Inc).
We examined the capacity of monocytes to uptake Aβ42 in a test tube. In order to measure that phagocytic activity we have used fluorescent HiLyteFluo Aβ42 (Anaspec Inc).
Preparation of cells: Peripheral blood was drawn from C57BL/6 mice via cardiac puncture with lithium-heparin as anticoagulant, 24-Hour after injection of the adjuvants used herein. Red blood cell lysis was performed twice on pooled blood with Ammonium Chloride-based Buffer (Sigma, Steinheim, Germany) and cells were counted with the EasyCount™ System (Immunicon). […]
Samples were acquired on a flow cytometer (BD FACSCanto II) and data analyzed with the FACSDiva software (BD Biosciences).
Monocytes were identified by their Side/Forward scatter properties, excluding debris and gated as CD3-/CD45R/B220-/Ly-6G-/NK1.1-(Lineage-)/CD11b+ cells. Aβ uptake was assessed by reporting the percentage and Mean Fluorescence Intensity (GeoMean) of positive HiLyte fluor488 Aβ1-42 cells among gated monocytes.

**Q.** Which “ex vivo Aβ uptake by mouse peripheral blood monocytes” value does the source give for QS21 [reference compound] here?
**A.** Its value is “does not promote”.
